This passage reports IC50 results from patent US6703536B2, “Disposable absorbent article having a skin care composition containing an enzyme inhibitor” (The Procter & Gamble Company, priority 1998, dated 2004).

Test [1] addresses protease activity in feces. In words: General Fecal Enzymes Method (casein-resorufin cleavage). Format: biochemical, infant. The settings on record: fecal suspension, casein-resorufin substrate, pH 7.8, 37° C. for 60 minutes. An excerpt: (§1) Pooled infant feces (at least five different samples) are collected in a manner to keep them free of urine and contamination and mixed with water to obtain a weight by weight (w/w) mixture (e.g., 1:50 w/w). This mixture is then mixed thoroughly to obtain a homogeneous suspension by homogenization or sonication. […] (Also, to ensure complete linearity the final absorbance should never exceed 1.5 OD405 units). If the activity of the pooled infant feces is outside this range, it is not possible to accurately determine IC50 values for putative protease inhibitors. However, the range of enzyme activity may be adjusted by increasing or decreasing the dilution factor accordingly for each enzyme. If this is not possible, a different group of subjects should be used to obtain the sample pool.
The general method described above for obtaining a sample of feces suitable for use in Specific Fecal Enzyme Methods can be easily adapted by one skilled in the art to obtain appropriate samples of feces suitable for use in the General Fecal Enzymes Method listed below without undue experimentation.
To test the efficacy of protease inhibitors against the protease activity in feces, 50 μL of inhibitor and 50 μL of fecal suspension are added to a 1.5 mL microcentrifuge tube. The microcentrifuge tube is mixed by inversion and incubated at 25° C. for 45 minutes. Then, 50 μL of protease buffer (200 mM TRIS buffer containing 20 mM CaCl2, pH 7.8) is added to the microcentrifuge tube. The microcentrifuge tube is again mixed by inversion and incubated at 25° C. for 45 minutes. […] The microcentrifuge tube is again mixed by inversion and incubated at 37° C. for 60 minutes for the substrate cleavage reaction to take place. Then, 480 μL of trichloroacetic acid (5% w/v) is added to stop the reaction and precipitate any unreacted casein-resorufin. The microcentrifuge tube is mixed by inversion incubated at 37° C. for 15 minutes. […] Then, 400 μL of the supernatant is added to 600 μL of assay buffer (0.5 M TRIS, pH 8.8) in a cuvette. […] The same procedure is repeated without the putative inhibitor. […] Before the start of the reaction, A and Ai are nearly zero. […] The rates, vi and v, and the inhibitor concentration [I] are used to calculate IC50 according to the equation expressed above.

Test [2] has as its target trypsin activity in feces. In words: Fecal Trypsin Activity (Specific Fecal Enzyme Method). The settings on record: pooled infant fecal suspension, pH 8.2, 25° C.; read-out: IC50 Specific Fecal Enzyme Methods Trypsin. Format: biochemical.
Text: The following is a general description of a method for obtaining a sample of feces suitable for use in Fecal Protease Methods. However, one skilled in the art will be able to adapt the method to obtain appropriate samples of feces suitable for use in any of the Specific Fecal Protease Methods listed below (i.e., lipase, urease, and amylase) without undue experimentation.
as §1
To test the efficacy of protease inhibitors against the trypsin activity in feces, inhibitor and trypsin buffer (50 mM TRIS, 20 mM CaCl2, pH 8.2) are added in a cuvette to obtain a final volume of 0.8 mL. To this mixture, 0.1 mL of substrate (3 mM Cbz-arginine-p-nitroanilide) is added to the cuvette. The cuvette is mixed by inversion and incubated at 25° C. for 5 minutes. A volume of 0.1 mL of fecal suspension is added to the cuvette, mixed and the absorbance at 405 nm minus the absorbance at 490 nm are measured over 5 minutes at 25° C. (The absorbance at 490 nm is a correction factor for the background absorbance due to the particulate fecal material, i.e., “interference”). The rate of substrate cleavage in the presence of inhibitor (vi) is the slope of a plot relating the excess absorbance (i.e., the absorbance at 405 nm minus the absorbance at 490 nm) versus time. The same procedure is repeated without the putative inhibitor. The rate of substrate cleavage in the absence of inhibitor (v) is the slope of a plot relating the excess absorbance versus time. The rates, vi and v, and the inhibitor concentration [I] are used to calculate IC50 according to the equation expressed above.

Where a name gives a salt, the structure may show the parent alone. Square brackets hold non-standard residues; d marks the D form. Peptide text beside a SMILES is read from it. * marks the point of attachment. Sta = CC(C)C[C@H](N)[C@@H](O)CC(=O)O; Isovaleryl = CC(C)CC(=O)*

As a reminder, the IC50 is the point on the concentration scale where inhibition reaches its midpoint. For `CC(C)C[C@H](NC(=O)[C@@H](NC(=O)N[C@@H](Cc1ccccc1)C(=O)O)[C@@H]1CCN=C(N)N1)C(=O)N[C@H](C=O)Cc1ccccc1` [Chymostatin], the IC50 is 64 µM in test [1] and over 500 µM in test [2]. For the molecule `CC1(C)[C@@H](O[C@H]2O[C@H](C(=O)O)[C@@H](O)[C@H](O)[C@H]2O[C@@H]2O[C@H](C(=O)O)[C@@H](O)[C@H](O)[C@H]2O)CC[C@]2(C)[C@H]3C(=O)C=C4[C@@H]5C[C@@](C)(C(=O)O)CC[C@]5(C)CC[C@@]4(C)[C@]3(C)CC[C@@H]12` [Glycyrrhizic Acid], in test [2], the IC50 was over 300 µM. Still for that read-out and setting: to `N=C(N)c1ccc(OCCCCCCOc2ccc(C(=N)N)cc2)cc1` [Hexamidine diisethionate] belongs 2.3 µM. As to `CC(=O)N[C@@H](CC(C)C)C(=O)N[C@@H](CC(C)C)C(=O)N[C@H](C=O)CCCNC(=N)N` [Leupeptin], the IC50 in test [1] is over 320 µM; in test [2], 0.11 µM. Take `CC(C)CC(=O)N[C@H](C(=O)N[C@H](C(=O)N[C@@H](CC(C)C)[C@@H](O)CC(=O)N[C@@H](C)C(=O)N[C@@H](CC(C)C)[C@@H](O)CC(=O)O)C(C)C)C(C)C` [Pepstatin A] (Isovaleryl-VV[Sta]A[Sta]-OH): the half-inhibitory concentration (IC50) in test [1] is over 32 µM; in test [2] it was over 500 µM.

`Cc1ccc(S(=O)(=O)N[C@@H](CCCCN)C(=O)CCl)cc1` [TLCK, L-1-chloro-3-[4-tosylamido]-7-amino-2-heptanone-HCl]: the IC50 in test [2] came to 200 µM. Same read-out and setting: the figure for `N=C(N)c1ccc(N)cc1` [p-Amino-benzamidine] is 20 µM; for Aprotinin it is 0.01 µM.

B1: Soybean trypsin inhibitor: plant-derived trypsin inhibitor (protein, UniProt P01070 25-205, looked up)
Trypsin inhibitor A: DFVLDNEGNPLENGGTYYILSDITAFGGIRAAPTGNERCPLTVVQSRNELDKGIGTIISSPYRIRFIAEGHPLSLKFDSFAVIMLCVGIPTEWSVVEDLPEGPAVKIGENKDAMDGWFRLERVSDDEFNNYKLVFCPQQAEDDKCGDIGISIDHDDGTRRLVVSKNKPLVVQFQKLDKESL
Regarding B1, the IC50 is 4.9 µM in test [1] and under 0.01 µM in test [2].
